Measurements reported in US20060292151A1, “L-SIGN polymorphisms and methods involving use of same” (priority 2004, published 2006).

Tested on: L-SIGN alleles: L-SIGN-4, -5, -7 and -9
Test: Inhibition of L-SIGN-mediated trans-infection of Hep3B cells by HCVpp
Format: cell-based, human
Settings: mannan 20 μg/ml
Method: FIG. 9. Inhibition of trans-infection with agents to the CRD of L-SIGN. HeLa or HeLa-SIGN transfectants stably expressing the indicated polymorphic forms of L-SIGN were incubated with mannan (20 μg/ml), anti-CRD mAbs (120604 and 120612, 10 μg/ml), or IgG2a isotype-control IgG (10 μg/ml) prior to addition to HCVpp. Cells were incubated an additional 2 h, washed and combined with Hep3B cells. Cultures were maintained for 48 h prior to lysis and measurement of luciferase activity. The data represent the percent of trans-infection relative to that observed in the absence of inhibitor. The values were calculated as (net RLU in the presence of inhibitor)/(net RLU in the absence of inhibitor)×100, where net RLU represents the difference in RLU values observed between transfected and parental HeLa cells. Negative values are omitted for clarity. The data represent the average of 3 independent measurements. […]
Parental HeLa cells and HeLa-SIGN transfectants (2×10^4) were incubated with 200 μl of viral supernatant for 2 h at 37° C. […] Luciferase activity was measured in cell lysates using the Luciferase Assay System (Promega, Madison, Wis.) according to the manufacturer's instructions. […] Data were analyzed for statistical significance using 2-sided t-tests and a significance level of P<0.05 unless otherwise indicated. […]

Sequence of L-SIGN alleles: L-SIGN-4, -5, -7 and -9 (Q9H2X3 250-399 limits assumed): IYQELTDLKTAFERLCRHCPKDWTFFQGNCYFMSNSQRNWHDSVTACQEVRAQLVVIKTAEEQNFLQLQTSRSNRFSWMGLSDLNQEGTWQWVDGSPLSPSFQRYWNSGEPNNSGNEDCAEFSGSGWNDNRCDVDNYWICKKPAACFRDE

With mannan the “average level of inhibition of trans-infection across the different isoforms” value was 77% and the “level of trans-infection inhibited (range over L-SIGN-4, -5, -7 and -9)” value (30 min before HCVpp, Hep3B co-culture 48 h, luciferase) was 47-95%.
